Molecular target: T1, native TRPV1 (Rattus norvegicus, UniProt O35433)
T1 construct: RTX-induced membrane currents on native TRPV1 in embryonic DRG neurons grown in culture; endogenous in cells; host or cells: primary rat E18 DRG neurons
Test: Single-channel currents in cell-attached patches from DRG neurons
Format: cell-based
Parameters: Open time τ4 / Closed time τ1 / Closed time τ2 / Closed time τ3 / Closed time τ4: unit not given here
Settings: for single-channel conductance / single-channel current amplitude / Po (single-channel open probability): cell-attached; for single-channel conductance / single-channel current amplitude: RTX, capsaicin 100 nM; for Closed time τ1 / Closed time τ2 / Closed time τ3 / Open time τ1 / Open time τ2 / Open time τ3 / Po (single-channel open probability): RTX 0.1 nM; for Closed time τ1 / Closed time τ2 / Closed time τ3 / Open time τ1 / Open time τ2 / Open time τ3 / Po (single-channel open probability) / Closed time τ4 / Open time τ4: CAP 100 nM; for slope conductance, inward limb / negative potentials: between 0 and −100 mV
Text: For single-channel recording in cell-attached patches from DRG neurons, the bath solution contained (mM): potassium gluconate 140, KCl 2.5, MgCl2 1, Hepes 5 and EGTA 1.5; pH adjusted to 7.35 with NaOH. The patch pipettes were made from glass capillaries (Drummond, Microcaps), coated with Sylgard (Dow Corning, Midland, Mich., USA). For cell-attached patches, the patch pipettes were filled with a solution that contained (mM): sodium gluconate 140, NaCl 10, MgCl2 1, Hepes 5 and EGTA 1.5; pH adjusted to 7.35 with NaOH. While recording from cell-attached patches, in order to avoid differences in the driving force because of the differences in the membrane potential, the external NaCl was replaced by an equal amount of KCl in order to nullify the membrane potential. For outside-out patches, the pipette solution contained (mM): sodium gluconate 90, NaCl 10, BAPTA 10, Hepes 10, K2ATP2 and GTP 0.25; pH adjusted to 7.35 with NaOH. The bath solution contained (mM): sodium gluconate 100, KCl 2.5, MgCl2 1, Hepes 5 and EGTA 1.5; pH adjusted to 7.35 with NaOH. All the experiments were performed at room temperature (21-23° C.). Agar-bridge electrodes were used to avoid changes in junction potential. The currents were recorded using a WPC 100 (Warner Instruments) or Axopatch 2B (Axon Instruments, Union City, Calif., USA) patch-clamp amplifier. Data were filtered at 10 kHz (Axopatch 2B), digitized (VR-10B, Instrutech Corp.), and stored on videotapes. For the analysis of amplitude and open probability (Po), the data were filtered at 2.5 kHz (−3 db frequency with an 8-pole low-pass Bessel filter, Warner Instruments) and digitized at 5 kHz. For dwell-time analysis, the data were filtered at 10 kHz and digitized at 50 kHz.
Single-channel analysis. Single-channel current amplitude and Po were estimated from all-point current amplitude histograms (Channel 2 software kindly provided by Michael Smith, Australian National University, Can berra, Australia) and fitted to Gaussian densities (Origin, OriginLab Corp., Northampton, Mass., USA). For current-voltage relationships, the amplitudes were determined by fitting a Gaussian curve to an all-point histogram. Po was determined using unedited segments of data, which were typically 1-5 min long. For multiple channel patches, the mean Po was measured as nPo, where n is the number of channels in the patch. Chord conductance was measured at +60 or −60 mV. […]
Single-channel currents were idealized using a modified Viterbi algorithm (QUB software, www.qub.buffalo.edu). Dwell-time distributions were fitted with mixtures of exponential densities using a method of maximum likelihood. Additional exponential components were incorporated only if the maximum log likelihood increased more than 2 log likelihood units. (Chung et al. 1990; Qin et al. 1996; Premkumar et al. 1997.) A dead time (Td) of 50 μs was imposed retrospectively, in that, events shorter than 50 μs were considered to be a part of the adjoining sojourns.
Single-channel conductance. To further evaluate the properties of TRPV1 activation by RTX, we recorded single-channel currents from cell-attached and excised patches from DRG neurons and oocytes heterologously expressing TRPV1. All recordings were carried out in the absence of extracellular calcium to avoid tachyphylaxis and desensitization of channel activity. (Docherty et al. 1996; Caterina et al. 1997; Koplas et al. 1997.) Single-channel current activity in cell-attached patches from DRG neurons were recorded at −60 and +60 mV, as shown in FIG. 3.

T1 sequence (O35433 whole entry): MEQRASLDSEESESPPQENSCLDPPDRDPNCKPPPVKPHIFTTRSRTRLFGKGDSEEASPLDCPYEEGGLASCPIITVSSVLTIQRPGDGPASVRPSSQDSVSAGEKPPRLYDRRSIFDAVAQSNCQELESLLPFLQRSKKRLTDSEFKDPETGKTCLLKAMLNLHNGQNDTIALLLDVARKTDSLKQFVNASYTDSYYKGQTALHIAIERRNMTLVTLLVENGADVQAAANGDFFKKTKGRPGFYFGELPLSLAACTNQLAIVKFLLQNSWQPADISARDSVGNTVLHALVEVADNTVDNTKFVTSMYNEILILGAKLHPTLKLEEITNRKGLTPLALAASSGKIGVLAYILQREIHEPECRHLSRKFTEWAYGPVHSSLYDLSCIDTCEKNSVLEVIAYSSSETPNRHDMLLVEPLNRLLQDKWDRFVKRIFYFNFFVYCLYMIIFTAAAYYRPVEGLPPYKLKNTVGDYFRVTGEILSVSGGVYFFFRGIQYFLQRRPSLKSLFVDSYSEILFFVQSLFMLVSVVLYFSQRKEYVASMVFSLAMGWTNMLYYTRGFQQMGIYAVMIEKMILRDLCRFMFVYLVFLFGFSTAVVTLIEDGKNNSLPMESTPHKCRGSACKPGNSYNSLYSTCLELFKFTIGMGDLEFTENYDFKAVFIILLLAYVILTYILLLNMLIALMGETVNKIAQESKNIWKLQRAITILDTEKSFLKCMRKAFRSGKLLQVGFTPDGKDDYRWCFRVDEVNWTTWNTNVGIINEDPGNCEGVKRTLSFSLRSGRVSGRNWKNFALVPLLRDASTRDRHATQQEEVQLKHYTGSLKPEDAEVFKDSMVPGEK

## C=C(C)[C@]12C[C@@H](C)[C@@]34O[C@](Cc5ccccc5)(O[C@@H]1[C@@H]3C=C(COC(=O)Cc1ccc(O)c(OC)c1)C[C@]1(O)C(=O)C(C)=C[C@@H]41)O2 [RTX, resiniferatoxin]
+60 mV
  mean open time: 7.9 ms
  single-channel conductance: 100±2.2 pS
  single-channel current amplitude: 6.02±0.14 pA
RTX 0.1 to 20 nM
  change of Po with increasing concentration: did not change
Vm +60 mV
  Closed time τ1: 0.1±0.008
  Closed time τ2: 0.46±0.02
  Closed time τ3: 8.7±3.9
  Open time τ1: 1.6 ± 1.2 ms
  Open time τ2: 6.58 ± 0.56 ms
  Open time τ3: 12 ± 1 ms
  Po (single-channel open probability): 0.98±0.02
Vm −60 mV
  Closed time τ1: 0.05±0.007
  Closed time τ2: 0.12±0.005
  Closed time τ3: 1.1±0.26
  Open time τ1: 0.46 ± 0.1 ms
  Open time τ2: 5.57 ± 2.4 ms
  Open time τ3: 10.2 ± 1.8 ms
  Po (single-channel open probability): 0.94±0.02
Between 0 and +100 mV
  slope conductance, outward limb / positive potentials: 126 pS
  slope conductance, inward limb / negative potentials: ~30 pS
cell-attached as well as outside-out patches, negative and positive potentials
  Po of RTX-induced currents: ~0.9
Recorded −100 to +100 mV
  reversal potential of single-channel currents: −2.9 mV
single-channel recording
  concentration that could maximally activate the receptor: 0.1 to 0.2 nM
−60 mV
  mean open time: 7.5 ms
  single-channel conductance: 38.3±3.5 pS
  single-channel current amplitude: 2.3±0.21 pA

## COc1cc(CNC(=O)CCCC/C=C/C(C)C)ccc1O [capsaicin]
+60 mV
  mean open time: 3.8 ms
  single-channel conductance: 95±0.1 pS
  single-channel current amplitude: 5.67±0.06 pA
Vm +60 mV
  Closed time τ4: 70.84±47
  Open time τ4: 14.7±2.6
  Closed time τ1: 0.06±0.02
  Closed time τ2: 0.67±0.39
  Closed time τ3: 1.66±0.39
  Open time τ1: 0.14 ± 0.04 ms
  Open time τ2: 0.7 ± 0.13 ms
  Open time τ3: 3.83 ± 0.62 ms
  Po (single-channel open probability): 0.53±0.04
Vm +60 mV, listed as CAP
  Closed time τ4: 70.84 ± 47
  Open time τ4: 14.7 ± 2.6
  Closed time τ1: 0.06 ± 0.02
  Closed time τ2: 0.67 ± 0.39
  Closed time τ3: 1.66 ± 0.39
  Open time τ1: 0.14 ± 0.04 ms
  Open time τ2: 0.7 ± 0.13 ms
  Open time τ3: 3.83 ± 0.62 ms
  Po (single-channel open probability): 0.53 ± 0.04
Vm −60 mV
  Closed time τ4: 30.8±12.4
  Closed time τ1: 0.13±0.02
  Closed time τ2: 0.79±0.12
  Closed time τ3: 3.47±0.59
  Open time τ1: 0.11 ± 0.01 ms
  Open time τ2: 0.76 ± 0.18 ms
  Open time τ3: 2.61 ± 0.84 ms
  Po (single-channel open probability): 0.1±0.04
Vm −60 mV, listed as CAP
  Closed time τ4: 30.8 ± 12.4
  Closed time τ1: 0.13 ± 0.02
  Closed time τ2: 0.79 ± 0.12
  Closed time τ3: 3.47 ± 0.59
  Open time τ1: 0.11 ± 0.01 ms
  Open time τ2: 0.76 ± 0.18 ms
  Open time τ3: 2.61 ± 0.84 ms
  Po (single-channel open probability): 0.1 ± 0.04
  slope conductance, inward limb / negative potentials: 41 pS
capsaicin-induced currents
  conductance level at which currents predominantly dwelled: ~95 pS
−60 mV
  mean open time: 1.27 ms
  single-channel conductance: 40±1.95 pS
  single-channel current amplitude: 2.4±0.12 pA
